These results are taken from US20100210667A1, “IMIDAZO [1, 2-C] PYRIMIDIN-2-YLMETHYLPIPERIDINES AS OREXIN RECEPTOR ANTAGONISTS” (priority 2007, published 2010).

Ends that are not written are not given here.

One assay deals with T1, human cloned orexin-1 receptor (alanine at position 280) (Homo sapiens, UniProt O43613).
T1 construct: expressed in transfected cells
T1 sequence (O43613 1-425): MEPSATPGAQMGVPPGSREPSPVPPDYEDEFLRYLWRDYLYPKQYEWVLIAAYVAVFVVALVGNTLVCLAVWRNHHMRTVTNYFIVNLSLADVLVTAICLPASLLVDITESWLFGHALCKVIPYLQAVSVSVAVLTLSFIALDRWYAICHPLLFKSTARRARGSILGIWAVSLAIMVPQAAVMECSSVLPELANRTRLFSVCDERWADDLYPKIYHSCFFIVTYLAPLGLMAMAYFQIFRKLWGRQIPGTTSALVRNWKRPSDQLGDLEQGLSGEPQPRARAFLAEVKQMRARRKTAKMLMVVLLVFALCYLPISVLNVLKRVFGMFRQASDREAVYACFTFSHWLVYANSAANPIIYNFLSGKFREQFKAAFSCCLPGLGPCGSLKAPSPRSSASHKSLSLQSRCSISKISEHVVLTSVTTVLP
The assay can be described thus: Antagonist affinity at human orexin-1 receptor using FLIPR ([Ca2+]i, CHO cells). It counts as cell-based. The note with it: hOrexin A at EC80, IC50 converted to functional pKi by modified Cheng-Prusoff, read-out: fpKi at the human cloned orexin-1 receptor. The source says:
Determination of ANTAGONIST AFFINITY at Human Orexin-1 and 2 Receptors Using FLIPR
Adherent Chinese Hamster Ovary (CHO) cells, stably expressing the recombinant human Orexin-1 or human Orexin-2 receptors or Rat Basophilic Leukaemia Cells (RBL) stably expressing recombinant rat Orexin-1 or rat Orexin-2 receptors were maintained in culture in Alpha Minimum Essential Medium (Gibco/Invitrogen, cat. no.; 22571-020), supplemented with 10% decomplemented foetal bovine serum (Life Technologies, cat. no. 10106-078) and 400 μg/mL Geneticin G418 (Calbiochem, cat. no.345810). Cells were grown as monolayers under 95%:5% air:CO2 at 37° C.
The sequences of the human orexin 1, human orexin 2, rat orexin 1 and rat orexin 2 receptors used in this example were as published in Sakurai, T. et al (1998) Cell, 92 pp 573 to 585, with the exception that the human orexin 1 receptor sequence used had the amino acid residue alanine at position 280 and not glycine as reported in Sakurai et al.
Cells were seeded into black clear-bottom 384-well plates (density of 20,000 cells per well) in culture medium as described above and maintained overnight (95%:5% air:CO2 at 37° C.). On the day of the experiment, culture medium were discarded and the cells washed three times with standard buffer (NaCl, 145 mM; KCl, 5 mM; HEPES, 20 mM; Glucose, 5.5 mM; MgCl2, 1 mM; CaCl2, 2 mM) added with Probenecid 2.5 mM. The plates were then incubated at 37° C. for 60 minutes in the dark with 1 μM FLUO-4AM dye to allow cell uptake of the FLUO-4AM, which is subsequently converted by intracellular esterases to FLUO-4, which is unable to leave the cells. After incubation, cells were washed three times with standard buffer to remove extracellular dye and 30 μL of buffer were left in each well after washing.
Compounds of the invention were tested in a final assay concentration range from 1.66×10^−5M to 1.58×10^−11M. Compounds of the invention were dissolved in dimethylsulfoxide (DMSO) at a stock concentration of 10 mM. These stock solutions were serially diluted with DMSO and 1 μL of each dilution was transferred to a 384 well compound plate. Immediately before introducing compound to the cells, buffer solution (50 μl/well) was added to this plate. To allow agonist stimulation of the cells, a stock plate containing a solution of human orexin A (hOrexin A) was diluted with buffer to final concentration just before use. This final concentration of hOrexin A was equivalent to the calculated EC80 for hOrexinA agonist potency in this test system. This value was obtained by testing hOrexinA in concentration response curve (at least 16 replicates) the same day of the experiment.
The loaded cells were then incubated for 10min at 37° C. with test compound. The plates were then placed into a FLIPRTM (Molecular Devices, UK) to monitor cell fluorescence (λex=488 nm, λEM=540 nm) (Sullivan E, Tucker E M, Dale I L. Measurement of [Ca^2+]i, using the fluometric imaging plate reader (FLIPR). In: Lambert D G (ed.), Calcium Signaling Protocols. New Jersey: Humana Press, 1999, 125-136). A baseline fluorescence reading was taken over a 5 to 10 second period, and then 10 μL of EC80 hOrexinA solution was added. The fluorescence was then read over a 4-5 minute period.
Functional responses using FLIPR were measured as peak fluorescence intensity minus basal fluorescence and expressed as a percentage of a non-inhibited Orexin-A-induced response on the same plate. […]
As to `Cc1nc(C(=O)N2CCCC[C@H]2Cc2cn3cnc(Cl)c(C)c3n2)c(-c2ccccc2)s1` [Example 1, 7-chloro-8-methyl-2-({2S)-1-[(2-methyl-5-phenyl-1,3-thiazol-4-ylcarbonyl]-2-piperidinyl}methyl)imidazo[1,2-c]pyrimidine], the Ki was 0.631 to 3.98 nM.
Same read-out and setting: with `Cc1nc(C(=O)N2CCCC[C@H]2Cc2cn3cncc(C)c3n2)c(-c2ccccc2)s1` [Example 2] the figure was 0.631 to 3.98 nM; with `COc1ncn2cc(C[C@@H]3CCCCN3C(=O)c3nc(C)sc3-c3ccccc3)nc2c1C` [Example 3, 8-methyl-7-(methyloxy)-2-({(2-S)-1-[(2-methyl-5-phenyl-1,3-thiazol-4-yl)carbonyl]-2-piperidinyl}methyl)imidazo[1,2-c]pyrimidine], 0.631 to 3.98 nM.
Consider `Cc1nc(C(=O)N2CCCC[C@H]2Cc2cn3cnc(C)c(Cl)c3n2)c(-c2ccccc2)s1` [Example 4, 8-chloro-7-methyl-2-({(2S)-1-[(2-methyl-5-phenyl-1,3-thiazol-4-yl)carbonyl]-2-piperidinyl}methyl)imidazo[1,2-c]pyrimidine], for which the Ki was in the range of 0.631 to 3.98 nM.
Still for that read-out and setting: the figure for `Cc1nc(C(=O)N2CCCC[C@H]2Cc2cn3cnc(C)c(C)c3n2)c(-c2ccccc2)s1` [Example 5, 7,8-dimethyl-2-({(2S)-1-[(2-methyl-5-phenyl-1,3-thiazol-4-yl)carbonyl]-2-piperidinyl}methyl)imidazo[1,2-c]pyrimidine] is 0.631 to 3.98 nM.

The test system of a further assay is food intake.
Assay: not given
The note with it: central administration, freely-feeding rats, 4 hour time period; cited from earlier work.
For the compound “orexin-A: polypeptide ligand for the orexin-1 receptor, an agonist of the orexin receptors (QPLPDCCRQKTCSCRLYELLHGAGNHAAGILTL; ends and bridges not checked; cysteine pairing not given here; UniProt O43612 34-66, looked up)”, the “increase of food intake over control rats receiving vehicle” value is given as “approximately four-fold”.
